“Also recorded” adds a separate entry of the source.
Key:
[1] = Two-week intravenous toxicity study in mice; type: in vivo, normal female BALB/c mice
Procedure: In order to assess the sub-chronic intravenous toxicity of epothilone B, a non-GLP two-week i.v. toxicity study in non-tumor bearing, normal female BALB/c mice is conducted, involving analysis of mortality, clinical signs, body weight, food consumption, hematology, clinical biochemistry, urinalysis, and organ weights as well as macro and microscopic examinations. The study is based on two different dosing regiments of epothilone B of 3 mg/kg and 10 mg/kg, respectively, administered on days 1 and 8 (8 animals per group). Half of the animals are killed on day 15 (main group) and necropsy is performed. For the other half (recovery group) a recovery period of 5 weeks is allowed after administration of the second dose before sacrifice and subsequent necropsy on day 43.

ZR-75-1 (Breast) = assay: Antiproliferative assay, ZR-75-1; type: cell-based, human; conditions: ZR-75-1, 5 d exposure, mean ± SD, n = 3; read-out: IC50 for growth inhibition
Procedure: Antiproliferative assays are performed as previously described (Int. J. Cancer 43, 851-6 (1989)). Briefly, cells are seeded at 1.5×10^3 cells/well into 96-well microtiter plates and incubated overnight. Compounds are added in serial dilutions on day 1. The plates are then incubated for an additional 2 to 5 days, allowing for at least one cell doubling (cell line dependent), after which the cells are fixed with 3.3% v/v glutaraldehyde, washed with water and stained with 0.05% w/v methylene blue. After washing, the dye is eluted with 3% v/v HCl and the optical density measured at 665 nm with a SpectraMax 340 (Bucherer, Basel, Switzerland). IC50 values are determined by a computerized system (SoftPro, Bucherer, Basel, Switzerland) using the formula (OD test−OD start)/(OD control−OD start)×100. IC50 is defined as the drug concentration which leads to 50% of cells per well compared to control cultures (100%) at the end of incubation period.

PC-3M (Prostate) = assay: Antiproliferative assay, PC-3M; type: cell-based, human; conditions: 3 d exposure, mean ± SD, read-out: IC50 for growth inhibition
Procedure: A human androgen-independent prostate cancer cell line is used to establish subcutaneous and orthotopic models in mice. The human metastatic prostate carcinoma PC-3M is obtained from Dr. I. J. Fidler (MD Anderson Cancer Center, Houston, Tex., USA) and is cultured in Ham's F12K media supplemented with 7% v/v FBS. The PC-3M cell line is the result of isolation from liver metastasis produced in nude mice subsequent to intrasplenic injection of PC-3 cells [ATCC CRL 1435; American Type Culture Collection (Rockville, Md., USA)], and they can grow in Eagle's MEM supplemented with 10% fetal bovine serum, sodium pyruvate, non-essential amino acids, L-glutamine, a two-fold vitamin solution (Gibco Laboratories, Long Island, N.Y.) and penicillin-streptomycin (Flow Laboratories, Rockville, Md.). The PC-3M cell line is hormone-insensitive (that is, it grows in the absence of androgens). […] No normal Y chromosomes can be detected by Q-band analysis.
Antiproliferative assays are performed as previously described (Int. J. Cancer 43, 851-6 (1989)). […] After washing, the dye is eluted with 3% v/v HCl and the optical density measured at 665 nm with a SpectraMax 340 (Bucherer, Basel, Switzerland). IC50 values are determined by a computerized system (SoftPro, Bucherer, Basel, Switzerland) using the formula (OD test−OD start)/(OD control−OD start)×100. […]

[2] = GLP toxicology study in dogs; type: in vivo; conditions: dog
Source text: Inclusion Criteria • The following criteria must be met for inclusion into the study: • 1. Male or female patients >18 years of age. • 2. […] At least one measurable, evaluable, or non-evaluable site of disease as defined by Southwestern Oncology Group (SWOG) Solid Tumor Response Criteria including tumor marker value that is above the institutional upper limit of normal. • 4. Women of childbearing potential must have a negative serum β-HCG pregnancy test prior to the initiation of study drug. Male and female patients of reproductive potential must agree to employ an effective method of birth control throughout the study and for up to 3 months following discontinuation of study drug. • 5. World Health Organization (WHO) Performance Status Score of ≦2. • 6. Life expectancy of at least 3 months. • 7. Written informed consent is obtained prior to any screening procedures. Exclusion Criteria • Exclusion from the study is required if any of the following apply: • 1. Female patients who are pregnant or breast-feeding. Postmenopausal women must be amenorrheic for at least 12 months to be considered of non-childbearing potential. • 2. […] This dose is calculated as one-third of the toxic dose low (TDL) in the most sensitive species studied which, for epothilone B, is the dog. […]

[3] = 3 mg/kg i.v. on days 1 and 8, day 15
[4] = 10 mg/kg i.v. on days 1 and 8, day 15
[5] = both dose levels (3 and 10 mg/kg), day 15

C/C(=C\c1csc(C)n1)[C@@H]1C[C@@H]2O[C@]2(C)CCC[C@H](C)[C@H](O)[C@@H](C)C(=O)C(C)(C)[C@@H](O)CC(=O)O1 [epothilone B]
body weight loss ([1]; 3 mg/kg i.v. on days 1 and 8): only apparent in the second week | atrophy of the thymus [1, 3]: moderate | number of leukocytes, especially neutrophils and lymphocytes [1, 3]: reduction in the number of leukocytes | sternal bone marrow histology [1, 3]: minimal to slight erythroid and myeloid atrophy | organ weights at the end of the recovery period ([1]; 3 mg/kg i.v. on days 1 and 8, day 43): comparable to those of control animals | mortalities throughout the treatment period ([1]; 3 mg/kg i.v. on days 1 and 8, days 1-14): No mortalities | survival of the recovery group ([1]; 3 mg/kg i.v. on days 1 and 8, up to day 43): all animals of the recovery group survive until the end of the study; also recorded: tolerated without mortality | hematological parameters at the end of the recovery period ([1]; 3 mg/kg recovery group, day 43): normal for two out of the four animals | survival of the recovery group ([1]; 10 mg/kg i.v. on days 1 and 8): all animals of the recovery group have to be sacrificed prematurely on day 19; also recorded: death (or sacrifice) of all treated animals | atrophy of the thymus [1, 4]: marked | number of leukocytes, especially neutrophils and lymphocytes [1, 4]: reduction in the number of leukocytes | spleen histology [1, 4]: minimal lymphoid atrophy | sternal bone marrow histology [1, 4]: minimal to slight myeloid hypoplasia | mortalities throughout the treatment period ([1]; 10 mg/kg i.v. on days 1 and 8, days 1-14): No mortalities | body weight loss ([1]; 10 mg/kg i.v. on days 1 and 8, first and second week): Body weight loss is observed for all animals | clinical chemistry profile ([1]; 3 and 10 mg/kg i.v. on days 1 and 8): Only minor changes | intestinal mucosa (small and large intestine) histology [1, 5]: Minimal single cell necrosis | organ weights [1, 5]: pronounced changes in thymus, spleen, and uterus weights | IC50 (ZR-75-1 (Breast)): 0.64 ± 0.42 nM | IC50 (PC-3M (Prostate)): 3.82 ± 0.47 nM | Mortalities ([2]; 0.1 mg/kg, repeated once 3 weeks later): no mortalities | toxic dose low (TDL) ([2]; most sensitive species, estimated): ~0.65 mg/kg

— patent US7875601B2, “Cancer treatment with epothilones” (Novartis AG, priority 1998, dated 2011)
